Here are results for 27 compounds from patent US8394952B2 (Vertex Pharmaceuticals Incorporated, priority 2006, dated 2013).

In this assay the target is Plk1 (Homo sapiens, UniProt P53350). As to the kind of experiment: biochemical.

Bounds are passed on as bounds.

Plk1, sequence (P53350 20-338): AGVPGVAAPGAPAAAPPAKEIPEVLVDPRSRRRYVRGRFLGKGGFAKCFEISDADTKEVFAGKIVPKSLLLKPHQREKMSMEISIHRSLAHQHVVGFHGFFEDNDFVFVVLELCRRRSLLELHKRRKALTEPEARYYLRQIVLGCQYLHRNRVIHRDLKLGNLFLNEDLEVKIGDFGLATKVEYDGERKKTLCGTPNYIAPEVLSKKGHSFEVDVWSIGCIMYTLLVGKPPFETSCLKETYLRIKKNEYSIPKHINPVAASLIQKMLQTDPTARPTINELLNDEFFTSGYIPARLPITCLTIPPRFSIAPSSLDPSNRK

For the compound `COc1ccc(CNC(=O)c2ccc(Nc3ncc4c(n3)N(C3CCCC3)CC(C)(C)C(=O)N4C)c(OC)c2)cc1` [Compound I-213, 4-(9-cyclopentyl-5,7,7-trimethyl-6-oxo-6,7,8,9-tetrahydro-5H-pyrimido[4,5-b][1,4]diazepin-2-ylamino)-3-methoxy-N-(4-methoxybenzyl)benzamide], the Ki (as a rule, a measure of affinity in units of concentration, obtained from inhibition or displacement) is < 10 nM. Consider `COc1cc(C(=O)NCc2ccc(S(C)(=O)=O)cc2)ccc1Nc1ncc2c(n1)N(C1CCCC1)CC(C)(C)C(=O)N2C` [Compound I-214, 4-(9-cyclopentyl-5,7,7-trimethyl-6-oxo-6,7,8,9-tetrahydro-5H-pyrimido[4,5-b][1,4]diazepin-2-ylamino)-3-methoxy-N-(4-(methylsulfonyl)benzyl)benzamide], for which the Ki was < 10 nM. The compound `COc1cc(C(=O)N(C)C)ccc1Nc1ncc2c(n1)N(C1CCCC1)CC(C)(C)C(=O)N2C` [Compound I-215, 4-(9-cyclopentyl-5,7,7-trimethyl-6-oxo-6,7,8,9-tetrahydro-5H-pyrimido[4,5-b][1,4]diazepin-2-ylamino)-3-methoxy-N,N-dimethylbenzamide] returned a Ki of 10 to 100 nM. Then `COc1cc(C(=O)NC[C@@H]2CCCC[C@@H]2O)ccc1Nc1ncc2c(n1)N(C1CCCC1)CC(C)(C)C(=O)N2C` [Compound I-216, 4-(9-cyclopentyl-5,7,7-trimethyl-6-oxo-6,7,8,9-tetrahydro-5H-pyrimido[4,5-b][1,4]diazepin-2-ylamino)-N-(((1S,2S)-2-hydroxycyclohexyl)methyl)-3-methoxybenzamide], with < 10 nM. The same measure for `COC[C@H](C)NC(=O)c1ccc(Nc2ncc3c(n2)N(C2CCCC2)CC(C)(C)C(=O)N3C)c(OC)c1` [Compound I-217, (S)-4-(9-cyclopentyl-5,7,7-trimethyl-6-oxo-6,7,8,9-tetrahydro-5H-pyrimido[4,5-b][1,4]diazepin-2-ylamino)-3-methoxy-N-(1-methoxypropan-2-yl)benzamide]: < 10 nM. Then `CCCNC(=O)c1ccc(Nc2ncc3c(n2)N(C2CCCC2)CC(C)(C)C(=O)N3C)c(OC)c1` [Compound I-218, 4-(9-cyclopentyl-5,7,7-trimethyl-6-oxo-6,7,8,9-tetrahydro-5H-pyrimido[4,5-b][1,4]diazepin-2-ylamino)-3-methoxy-N-propylbenzamide], with < 10 nM; and `CCNC(=O)c1ccc(Nc2ncc3c(n2)N(C2CCCC2)CC(C)(C)C(=O)N3C)c(OC)c1` [Compound I-219, 4-(9-cyclopentyl-5,7,7-trimethyl-6-oxo-6,7,8,9-tetrahydro-5H-pyrimido[4,5-b][1,4]diazepin-2-ylamino)-N-ethyl-3-methoxybenzamide], with < 10 nM; and `COc1cc(C(=O)N2CC(OC)C2)ccc1Nc1ncc2c(n1)N(C1CCCC1)CC(C)(C)C(=O)N2C` [Compound I-220, 9-cyclopentyl-2-(2-methoxy-4-(3-methoxyazetidine-1-carbonyl)phenylamino)-5,7,7-trimethyl-8,9-dihydro-5H-pyrimido[4,5-b][1,4]diazepin-6(7H)-one], with < 10 nM. With `COc1cc(C(=O)Nc2ccccn2)ccc1Nc1ncc2c(n1)N(C1CCCC1)CC(C)(C)C(=O)N2C` [Compound I-221, 4-(9-cyclopentyl-5,7,7-trimethyl-6-oxo-6,7,8,9-tetrahydro-5H-pyrimido[4,5-b][1,4]diazepin-2-ylamino)-3-methoxy-N-(pyridin-2-yl)benzamide], the Ki is < 10 nM. For the compound `COc1cc(C(=O)Nc2ccncn2)ccc1Nc1ncc2c(n1)N(C1CCCC1)CC(C)(C)C(=O)N2C` [Compound I-222, 4-(9-cyclopentyl-5,7,7-trimethyl-6-oxo-6,7,8,9-tetrahydro-5H-pyrimido[4,5-b][1,4]diazepin-2-ylamino)-3-methoxy-N-(pyrimidin-4-yl)benzamide], the Ki is < 10 nM. The same measure for `COc1cc(C(=O)Nc2nccs2)ccc1Nc1ncc2c(n1)N(C1CCCC1)CC(C)(C)C(=O)N2C` [Compound I-223, 4-(9-cyclopentyl-5,7,7-trimethyl-6-oxo-6,7,8,9-tetrahydro-5H-pyrimido[4,5-b][1,4]diazepin-2-ylamino)-3-methoxy-N-(thiazol-2-yl)benzamide]: < 10 nM; for `COc1cc(C(=O)Nc2cnccn2)ccc1Nc1ncc2c(n1)N(C1CCCC1)CC(C)(C)C(=O)N2C` [Compound I-224, 4-(9-cyclopentyl-5,7,7-trimethyl-6-oxo-6,7,8,9-tetrahydro-5H-pyrimido[4,5-b][1,4]diazepin-2-ylamino)-3-methoxy-N-(pyrazin-2-yl)benzamide]: < 10 nM; for `COc1cc(C(=O)N[C@@H]2C[C@H]2c2ccccc2)ccc1Nc1ncc2c(n1)N(C1CCCC1)CC(C)(C)C(=O)N2C` [Compound I-225, 4-(9-cyclopentyl-5,7,7-trimethyl-6-oxo-6,7,8,9-tetrahydro-5H-pyrimido[4,5-b][1,4]diazepin-2-ylamino)-3-methoxy-N-((1R,2S)-2-phenylcyclopropyl)benzamide]: < 10 nM. On to `COc1cc(C(=O)N[C@H](C)c2ccccc2)ccc1Nc1ncc2c(n1)N(C1CCCC1)CC(C)(C)C(=O)N2C` [Compound I-226, (R)-4-(9-cyclopentyl-5,7,7-trimethyl-6-oxo-6,7,8,9-tetrahydro-5H-pyrimido[4,5-b][1,4]diazepin-2-ylamino)-3-methoxy-N-(1-phenylethyl)benzamide], for which the Ki was < 10 nM. The same measure for `COc1cc(C(=O)Nc2ccnc(Cl)c2)ccc1Nc1ncc2c(n1)N(C1CCCC1)CC(C)(C)C(=O)N2C` [Compound I-227, N-(2-chloropyridin-4-yl)4-(9-cyclopentyl-5,7,7-trimethyl-6-oxo-6,7,8,9-tetrahydro-5H-pyrimido[4,5-b][1,4]diazepin-2-ylamino)-3-methoxybenzamide]: < 10 nM; for `COc1cc(C(=O)Nc2cccnc2OC)ccc1Nc1ncc2c(n1)N(C1CCCC1)CC(C)(C)C(=O)N2C` [Compound I-228, 4-(9-cyclopentyl-5,7,7-trimethyl-6-oxo-6,7,8,9-tetrahydro-5H-pyrimido[4,5-b][1,4]diazepin-2-ylamino)-3-methoxy-N-(2-methoxypyridin-3-yl)benzamide]: < 10 nM. Take `COc1cc(C(=O)NC[C@@H]2CCCC[C@H]2O)ccc1Nc1ncc2c(n1)N(C1CCCC1)CC(C)(C)C(=O)N2C` [Compound I-229, 4-(9-cyclopentyl-5,7,7-trimethyl-6-oxo-6,7,8,9-tetrahydro-5H-pyrimido[4,5-b][1,4]diazepin-2-ylamino)-N-(((1S,2R)-2-hydroxycyclohexyl)methyl)-3-methoxybenzamide]: the Ki is < 10 nM. Then `COc1cc(C(=O)NCC2CCCC2)ccc1Nc1ncc2c(n1)N(C1CCCC1)CC(C)(C)C(=O)N2C` [Compound I-230, 4-(9-cyclopentyl-5,7,7-trimethyl-6-oxo-6,7,8,9-tetrahydro-5H-pyrimido[4,5-b][1,4]diazepin-2-ylamino)-N-(cyclopentylmethyl)-3-methoxybenzamide], with < 10 nM; and `COc1cc(C(=O)Nc2cc(C)[nH]n2)ccc1Nc1ncc2c(n1)N(C1CCCC1)CC(C)(C)C(=O)N2C` [Compound I-231, 4-(9-cyclopentyl-5,7,7-trimethyl-6-oxo-6,7,8,9-tetrahydro-5H-pyrimido[4,5-b][1,4]diazepin-2-ylamino)-3-methoxy-N-(5-methyl-1H-pyrazol-3-yl)benzamide], with < 10 nM. Then `COc1cc(C(=O)Nc2cc(C)ns2)ccc1Nc1ncc2c(n1)N(C1CCCC1)CC(C)(C)C(=O)N2C` [Compound I-232, 4-(9-cyclopentyl-5,7,7-trimethyl-6-oxo-6,7,8,9-tetrahydro-5H-pyrimido[4,5-b][1,4]diazepin-2-ylamino)-3-methoxy-N-(3-methylisothiazol-5-yl)benzamide], with < 10 nM; and `COc1cc(C(=O)NCC#N)ccc1Nc1ncc2c(n1)N(C1CCCC1)CC(C)(C)C(=O)N2C` [Compound I-233, N-(cyanomethyl)-4-(9-cyclopentyl-5,7,7-trimethyl-6-oxo-6,7,8,9-tetrahydro-5H-pyrimido[4,5-b][1,4]diazepin-2-ylamino)-3-methoxybenzamide], with < 10 nM.

As to `COc1cc(C(=O)Nc2ccncc2C(F)(F)F)ccc1Nc1ncc2c(n1)N(C1CCCC1)CC(C)(C)C(=O)N2C` [Compound I-234], the Ki was < 10 nM. In the case of `COc1cc(C(=O)NCc2cc(C)on2)ccc1Nc1ncc2c(n1)N(C1CCCC1)CC(C)(C)C(=O)N2C` [Compound I-235, 4-(9-cyclopentyl-5,7,7-trimethyl-6-oxo-6,7,8,9-tetrahydro-5H-pyrimido[4,5-b][1,4]diazepin-2-ylamino)-3-methoxy-N-((5-methylisoxazol-3-yl)methyl)benzamide], the inhibition constant (Ki) is < 10 nM.

On to `COc1cc(C(=O)Nc2ncc(C)s2)ccc1Nc1ncc2c(n1)N(C1CCCC1)CC(C)(C)C(=O)N2C` [Compound I-236, 4-(9-cyclopentyl-5,7,7-trimethyl-6-oxo-6,7,8,9-tetrahydro-5H-pyrimido[4,5-b][1,4]diazepin-2-ylamino)-3-methoxy-N-(5-methylthiazol-2-yl)benzamide], for which the Ki is < 10 nM.

In the case of `COc1cc(C(=O)NCCOCCO)ccc1Nc1ncc2c(n1)N(C1CCCC1)CC(C)(C)C(=O)N2C` [Compound I-237, 4-(9-cyclopentyl-5,7,7-trimethyl-6-oxo-6,7,8,9-tetrahydro-5H-pyrimido[4,5-b][1,4]diazepin-2-ylamino)-N-(2-(2-hydroxyethoxy)ethyl)-3-methoxybenzamide], the Ki is < 10 nM. On to `COc1cc(C(=O)NC(C)C)ccc1Nc1ncc2c(n1)N(C1CCCC1)CC(C)(C)C(=O)N2C` [Compound I-238, 4-(9-cyclopentyl-5,7,7-trimethyl-6-oxo-6,7,8,9-tetrahydro-5H-pyrimido[4,5-b][1,4]diazepin-2-ylamino)-N-isopropyl-3-methoxybenzamide], for which the Ki was < 10 nM.

Regarding `COc1cc(C(=O)N[C@H](CO)C(C)C)ccc1Nc1ncc2c(n1)N(C1CCCC1)CC(C)(C)C(=O)N2C` [Compound I-239, (S)-4-(9-cyclopentyl-5,7,7-trimethyl-6-oxo-6,7,8,9-tetrahydro-5H-pyrimido[4,5-b][1,4]diazepin-2-ylamino)-N-(1-hydroxy-3-methylbutan-2-yl)-3-methoxybenzamide], the Ki is < 10 nM.
